From patent US20240360133A1, “FUSED TRICYCLIC COMPOUND, PREPARATION METHOD THEREFOR AND APPLICATION THEREOF IN MEDICINE” (Jiangsu Hengrui Pharmaceuticals Co., Ltd., priority 2020, published 2024)

Molecular target: T1, human TLR9 (Homo sapiens, UniProt Q9NR96)
T1 construct: host or cells: HEK-Blue hTLR9 (HEK293)
T1 sequence (Q9NR96 26-1032): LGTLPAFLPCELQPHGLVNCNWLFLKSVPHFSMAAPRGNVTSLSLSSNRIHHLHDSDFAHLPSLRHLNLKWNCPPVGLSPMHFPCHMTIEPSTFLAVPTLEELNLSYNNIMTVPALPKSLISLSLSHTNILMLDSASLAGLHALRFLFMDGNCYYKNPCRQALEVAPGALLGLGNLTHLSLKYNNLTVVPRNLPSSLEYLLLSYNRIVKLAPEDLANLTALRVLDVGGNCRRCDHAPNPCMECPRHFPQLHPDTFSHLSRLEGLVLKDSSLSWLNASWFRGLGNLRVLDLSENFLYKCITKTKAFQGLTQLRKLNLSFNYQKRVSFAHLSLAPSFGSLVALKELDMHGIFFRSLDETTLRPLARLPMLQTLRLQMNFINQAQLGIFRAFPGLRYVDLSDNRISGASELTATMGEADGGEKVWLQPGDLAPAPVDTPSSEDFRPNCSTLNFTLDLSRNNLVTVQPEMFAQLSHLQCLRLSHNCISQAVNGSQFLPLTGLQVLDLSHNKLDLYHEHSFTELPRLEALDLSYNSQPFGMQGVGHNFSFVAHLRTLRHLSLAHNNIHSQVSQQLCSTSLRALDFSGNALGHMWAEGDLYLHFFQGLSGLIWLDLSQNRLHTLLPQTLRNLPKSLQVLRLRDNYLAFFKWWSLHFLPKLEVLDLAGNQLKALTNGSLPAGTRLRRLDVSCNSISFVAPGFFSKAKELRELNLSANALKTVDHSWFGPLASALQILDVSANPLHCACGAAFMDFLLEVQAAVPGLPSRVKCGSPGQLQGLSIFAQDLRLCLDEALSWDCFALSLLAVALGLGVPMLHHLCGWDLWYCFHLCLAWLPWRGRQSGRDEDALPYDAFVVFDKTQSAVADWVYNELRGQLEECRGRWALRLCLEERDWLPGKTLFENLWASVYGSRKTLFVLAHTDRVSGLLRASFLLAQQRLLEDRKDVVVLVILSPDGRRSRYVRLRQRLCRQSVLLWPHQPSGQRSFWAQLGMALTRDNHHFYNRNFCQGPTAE
Experiment: Inhibitory effect on human TLR9 activation pathway (HEK-Blue hTLR9 SEAP reporter)
Assay type: cell-based
Conditions: HEK-Blue hTLR9 cells, 1 μM CpG ODN2006, 20 h, SEAP OD620
Protocol: • 1. HEK-Blue™ hTLR9 cell (Invivogen) • 2. CpG ODN2006 (Invivogen) • 3. Alkaline phosphatase detection medium (Quanti-Blue Detection. Invivogen) • 4. Blasticidin (Invivogen) • 5. Zeocin (Invivogen) • 6. Normocin (Invivogen) • 7. DMEM/HIGH Glucose (GE Healthcare) • 8. Fetal bovine serum (FBS, Gibco) • 9. Phosphate-buffered saline (Shanghai BasalMedia Technologies Co., Ltd.) • 10. Sterile purified water (made in-house by Shanghai Hengrui) • 11. 15 mL centrifuge tube (Corning) • 12. 96-well formulating plate (Corning) • 13. 96-well fat-bottom cell culture plate (Corning) • 14. Constant-temperature cell incubator (Thermo scientific) • 15. Constant-temperature incubator (Shanghai Yiheng Scientific Instruments Co., Ltd.) • 16. PHERAstar FS microplate reader (BMG Labtech)
HEK-Blue™ hTLR9 cells were purchased from Invivogen. These cells are HEK293 cells transfected with the human Toll-like receptor 9 (TLR9) gene and the secreted alkaline phosphatase reporter gene (SEAP). The alkaline phosphatase reporter gene (SEAP) is under the regulation of the IFN-β minimal promoter comprising 5 NF-kB and AP-1 binding sites. Upon activation of TLR9 with an agonist, SEAP secretion is induced via downstream NF-kB and AP-1. Ater addition of an antagonist compound, the pathway described above is inhibited, and SEAP secretion is reduced. The activity of the compounds for the TLR9 pathway was evaluated by measuring OD620 through the SEAP substrate.
20 mM test compounds dissolved in 100% DMSO were serially diluted with 100% DMSO to 2000, 400, 80, 16, 3.2, 0.64, 0.128, 0.0256 IM, with blank wells containing 100% DMSO. […] The cells were cultured at 37° C. for 1-2 min, dispersed by pipetting, transferred to a 15 mL centrifuge tube, and counted, and the cell density was adjusted to 4.8×10^5/mL with the DMEM/HIGH glucose medium containing 10% inactivated FBS. […] Then the OD620 absorbance readings were taken on a microplate reader. The inhibition rate was calculated using the following formula: […]

SMILES	IC50 [nM]
Cc1cc(-c2[nH]c3cc4c(nc3c2C(C)C)CN(CCc2ccc(N3CCNCC3)nc2)CC4)cc(C)n1 [Example 4, 2-(2,6-Dimethylpyridin-4-yl)-3-isopropyl-6-(2-(6-(piperazin-4-yl)pyridin-3-yl)ethyl)-5,6,7,8-tetrahydro-1H-pyrrolo[3,2-b][1,7]naphthyridine]	74
Cc1cc(-c2[nH]c3cc4c(nc3c2C(C)C)CN(Cc2ccc(N3CCNCC3)cn2)CC4)cc(C)n1 [Example 5, 2-(2,6-Dimethylpyridin-4-yl)-3-isopropyl-6-((5-(piperazin-1-yl)pyridin-2-yl)methyl)-5,6,7,8-tetrahydro-1H-pyrrolo[3,2-b][1,7]naphthyridine]	87
Cc1cc(-c2[nH]c3cc4c(nc3c2C(C)C)CN(CC23CCC(N)(CC2)CC3)CC4)cc(C)n1 [Example 7, 4-((2-(2,6-Dimethylpyridin-4-yl)-3-isopropyl-1,5,7,8-tetrahydro-6H-pyrrolo[3,2-b][1,7]naphthyridin-6-yl)methyl)bicyclo[2.2.2]octyl-1-amine]	90
